Data published in patent US20110313672A1, “CELLULAR ANTIOXIDANT ACTIVITY (CAA) ASSAY” (CORNELL UNIVERSITY, priority 2007, published 2011).
Several values for one entry are separate records, joined by “and”; a condition that tells them apart may be missing. Equal values may be shown once. Entries after “also recorded” stand apart in the source; their conditions may differ. Read-outs that look alike come from different tables or passages of the source.

Legend:
[1] = system: HepG2 cells; experiment: Cellular antioxidant activity (CAA) assay: inhibition of peroxyl radical-induced DCFH oxidation; format: cell-based, human; settings: for CAA value / percent of the antioxidant activity of quercetin in the CAA assay: Example 1; for CAA value: pure compounds, EC50 converted to quercetin equivalents; for percent of the antioxidant activity of quercetin in the CAA assay: summary statement
Method: Cells (e.g., human hepatocellular carcinoma cells; HepG2) are seeded at a density of e.g., 6×10^4/well on a 96-well microplate in 100 μL growth medium/well. It is preferred that only the inside wells of e.g., a 96-well microplate are used for the assay, since the outer wells have increased variation compared to that of the inner wells. Twenty-four hours after seeding the growth medium is removed and the wells are washed with PBS. Triplicate wells are treated for 1 h with 100 μL of a test compound (e.g., pure phytochemical compounds or fruit extracts) plus 25 μM DCFH-DA dissolved in treatment medium.
600 μM ABAP is then applied to the cells in 100 μL HBSS and the 96-well microplate is placed into a plate reader e.g., Fluoroskan Ascent FL plate-reader (ThermoLabsystems, Franklin, Mass.) at 37° C. Emission at 538 nm is measured with excitation at 485 nm, for example every 5 min for 1 h. Each plate should include triplicate control and blank wells: control wells contain cells treated with DCFH-DA and oxidant; blank wells contain cells treated with dye and HBSS without oxidant.
A test compound is assayed in multiple wells of e.g., a 96-well cell culture plate. Some wells are washed with 100 μL of phosphate-buffered saline (PBS) prior to the addition of ABAP, while other wells were not washed prior to the addition of ABAP. It was noted that the measured antioxidant activity of some fruit extracts (e.g., blueberries) was different when a PBS wash was used compared to when there was no PBS wash (see Table 2; FIGS. 3 and 4). This is likely due to non-specific binding of certain antioxidant compounds to the outer membrane, or a reduced uptake of the compound, thus the ratio of antioxidant activity values obtained with a PBS wash compared to a non-PBS wash indicates the bioavailability of the test compound. In order to accurately measure the intracellular antioxidant activity of a test compound, a PBS wash prior to the addition of a peroxyl initiator (e.g, ABAP) is necessary. The values obtained for cells assayed using a PBS wash should be compared to values obtained for the same cells assayed without a PBS wash. One of skill in the art can plan and perform experiments on a test compound in the presence and absence of a PBS wash, in order to accurately assess the intracellular antioxidant capacity of the test compound.
After blank subtraction from the fluorescence readings, the area under the curve of fluorescence versus time is integrated to calculate the cellular antioxidant activity (CAA) value at each concentration of pure phytochemical compound or fruit extract as follows:
where ∫SA is the integrated area under the sample fluorescence versus time curve and ∫CA is the integrated area from the control curve. The median effective dose (EC50) was determined for the pure phytochemical compounds and fruit extracts from the median effect plot of log (fa/fu) vs. log (dose), where fa is the fraction affected and fu is the fraction unaffected by the treatment. To quantify intra-experimental variation, the EC50 values are stated as mean±SD for triplicate sets of data obtained from the same experiment. Inter-experimental variation is obtained for some representative pure phytochemical compounds and fruit extracts by averaging the fluorescence values from triplicate wells in each trial to obtain one EC50 value per experiment and calculating the mean±SD for at least four trials. In each experiment, a standard is used, for example quecetin, thus permitting the cellular antioxidant activities for a test compounds to be expressed as μmol quercetin equivalents (QE)/100 μmol compound. Fruit extracts are expressed as μmol QE/100 g fruit. In order to compare the antioxidant quality of different fruits, cellular antioxidant activity (CAA) is also calculated as μmol QE/100 μmol total phenolics.
Human hepatocellular carcinoma HepG2 cells were seeded at a density of 6×10^4/well on a 96-well microplate in 100 μL growth medium/well. […]

[2] = system: HepG2 cells; experiment: in vitro; settings: human, 24 h
Method: (§1) Briefly, HepG2 cells are seeded at 4×10^4/well on a 96-well plate in 100 μL growth medium and incubated for 24 h at 37° C. The medium is removed and the cells are washed with PBS. Treatments of fruit extracts or antioxidant compounds in 100 μL treatment medium (Williams' Medium E supplemented with 2 mM L-glutamine and 10 mM Hepes) are applied to the cells and the plates are incubated at 37° C. for 24 h. The treatment medium is removed and the cells are washed with PBS. A volume of 50 μL/well methylene blue staining solution (98% HBSS, 0.67% glutaraldehyde, 0.6% methylene blue) is applied to each well and the plate is incubated at 37° C. for 1 h.
(§2) Excess dye is removed by immersing the plate in fresh deionized water until the water appears clear. The excess water should be tapped out of the wells and the plate allowed to air-dry briefly before addition of 100 μL elution solution (49% PBS, 50% ethanol, 1% acetic acid) to each well. The microplate is then placed on a bench-top shaker for 20 minutes to allow uniform elution. The absorbance is read at 570 nm with blank subtraction using, for example a MRX II DYNEX spectrophotometer (DYNEX Inc., Chantilly, Va.). Concentrations of pure compounds or fruit extracts that decrease the absorbance by more than 10% when compared to the control are considered to be cytotoxic.
(§3) Cytotoxicity was measured using the method of Oliver et al. (31) with modifications by our laboratory (32). […] The medium was removed and the cells were washed with PBS. Treatments of fruit extracts or antioxidant compounds in 100 μL treatment medium (Williams' Medium E supplemented with 2 mM L-glutamine and 10 mM Hepes) were applied to the cells and the plates were incubated at 37° C. for 24 h. The treatment medium was removed and the cells were washed with PBS. A volume of 50 μL/well methylene blue staining solution (98% HBSS, 0.67% glutaraldehyde, 0.6% methylene blue) was applied to each well and the plate was incubated at 37° C. for 1 h. The dye was removed and the plate was immersed in fresh deionized water three times, or until the water was clear. The water was tapped out of the wells and the plate was allowed to air-dry briefly before 100 μL elution solution (49% PBS, 50% ethanol, 1% acetic acid) was added to each well. The microplate was placed on a bench-top shaker for 20 minutes to allow uniform elution. The absorbance was read at 570 nm with blank subtraction using the MRX II DYNEX spectrophotometer (DYNEX Inc., Chantilly, Va.). Concentrations of pure compounds or fruit extracts that decreased the absorbance by more than 10% when compared to the control were considered to be cytotoxic.
(§4) The median cytotoxic concentration (CC50) was calculated for each fruit.
(§5) Briefly, HepG2 cells were seeded at 4×10^4/well on a 96-well plate in 100 μL growth medium and incubated for 24 h at 37° C. The medium was removed, and the cells were washed with PBS. Flavonoids in 100 μL growth medium were applied to the cells, and the plates were incubated at 37° C. for 24 h. The medium was removed, and the cells were washed with PBS before a volume of 50 μL/well methylene blue staining solution (98% HBSS, 0.67% glutaraldehyde, 0.6% methylene blue) was applied to each well, and the plate was incubated at 37° C. for 1 h. The dye was removed, and the plate was immersed in fresh deionized water until the water was clear. The water was tapped out of the wells, and the plate was allowed to air-dry briefly before 100 μL of elution solution (49% PBS, 50% ethanol, 1% acetic acid) was added to each well. The microplate was placed on a benchtop shaker for 20 min to allow uniform
(§6) elution. The absorbance was read at 570 nm with blank subtraction using the MRX II Dynex spectrophotometer (Dynex Inc., Chantilly, Va.). The median cytotoxic concentration (CC50) was calculated for each flavonoid.

[3] = in vitro; settings: human
Method: as §1, §2, §3, §4, §5, §6

[4] = Oxygen radical absorbance capacity (ORAC) assay; settings: Example 3; flavonoids; mean ± SD, n ≧ 3
Method: The peroxyl radical scavenging efficacy of selected fruits was measured using the ORAC assay (Prior, R. L., et al (2003) J. Agric. Food Chem. 51:3273-3279). Briefly, 20 μL of blank, Trolox standard, or fruit extracts in 75 mM potassium phosphate buffer, pH 7.4 (working buffer), was added to triplicate wells in a black, clear-bottom, 96-well microplate. The triplicate samples were distributed throughout the microplate and were not placed side-by-side, to avoid any effects on readings due to location. In addition, no outside wells were used, as use of those wells results in greater variation. A volume of 200 μL of 0.96 μM fluorescein in working buffer was added to each well and incubated at 37° C. for 20 min, with intermittent shaking, before the addition of 20 μL of freshly prepared 119 mM ABAP in working buffer using a 12-channel pipetter. The microplate was immediately inserted into a Fluoroskan Ascent FL plate reader (ThermoLabsystems) at 37° C. The decay of fluorescence at 538 nm was measured with excitation at 485 nm every 4.5 min for 2.5 h. The areas under the fluorescence versus time curve for the samples minus the area under the curve for the blank were calculated and compared to a standard curve of the areas under the curve for 6.25, 12.5, 25, and 50 μM Trolox standards minus the area under the curve for blank. ORAC values were expressed as mean micromoles of Trolox equivalents (TE) per 100 g of fruit±SD for triplicate data from one experiment.
ORAC measurements were performed as described herein in Example 2.

[5] = Homo sapiens, HepG2, Example 1, Table 1, PBS wash, pure phytochemical compounds, mean ± SD, n=3, read-out: EC50 for inhibition of peroxyl radical-induced DCFH oxidation
[6] = Homo sapiens, HepG2, Example 1, Table 1, no PBS wash, pure phytochemical compounds, mean ± SD, n=3, read-out: EC50 for inhibition of peroxyl radical-induced DCFH oxidation
[7] = CAA assay, either protocol or protocol not specified
[8] = Example 3, Table 7, PBS wash, flavonoids, mean ± SD, n=3
[9] = Example 3, Table 7, no PBS wash, flavonoids, mean ± SD, n=3

Compound | EC50 [1, 5] [µM] | EC50 [1, 6] [µM] | EC50 [1, 8] | EC50 [1, 9] | CAA value ([1]; no PBS wash) [μmol QE/100 μmol] | percent of the antioxidant activity of quercetin in the CAA assay [1] | Cytotoxicity (cytotoxic concentration) [2] [µM] | cellular antioxidant activity, result in words [1, 7] | ORAC [4] | other results
O=C1O[C@H]([C@@H](O)CO)C(O)=C1O [Ascorbic acid, ascorbic acid] | > 500 | 67.5 ± 9.4 |  |  | 8.84±1.18 | less than ten percent | >500 |  |  | cellular antioxidant activity, result in words ([1]; PBS wash protocol): low
O=C(O)/C=C/c1ccc(O)c(O)c1 [Caffeic acid, caffeic acid] | 525 ± 38 | 95.3 ± 15.3 |  |  | 5.59±0.70 | less than ten percent | >500 |  |  | 
COc1cc(/C=C/C(=O)O)ccc1O [Ferulic acid, ferulic acid] | > 500 | > 250 |  |  |  |  | >500 |  |  | cellular antioxidant activity, result in words ([1]; no PBS wash protocol): low activity within the doses tested
O=c1cc(-c2ccc(O)cc2)oc2cc(O)cc(O)c12 [apigenin] |  |  | no activity | no activity |  |  |  | no cellular antioxidant activity; also recorded: no CAA | 10.7 ± 1.5 bc μmol of TE/μmol | CC50 at 24 h [3]: > 80 µM
C[C@@H]1O[C@@H](OC[C@H]2O[C@@H](Oc3c(-c4ccc(O)c(O)c4)oc4cc(O)cc(O)c4c3=O)[C@H](O)[C@@H](O)[C@@H]2O)[C@H](O)[C@H](O)[C@H]1O [rutin] |  |  | no activity | no activity |  |  |  | no activity |  | CC50 at 24 h ([3]; HepG2 cells): > 200 µM
(+)-catechin |  |  |  |  | 2.03±0.24 | less than ten percent |  | low or no cellular antioxidant activity; also recorded: low CAA | 12.4±4.0 μmol of TE/μmol and 12.4 ± 4.0 ab μmol of TE/μmol | EC50 ([1]; Example 1, Table 1, PBS wash, pure phytochemical compounds, mean ± SD, n=3, read-out: EC50 for inhibition of peroxyl radical-induced DCFH oxidation): > 500 µM; EC50 ([1]; Example 1, Table 1, no PBS wash, pure phytochemical compounds, mean ± SD, n=3, read-out: EC50 for inhibition of peroxyl radical-induced DCFH oxidation): 292 ± 32 µM; EC50 ([1]; Example 3, Table 7, PBS wash, flavonoids, mean ± SD, n=3, read-out: EC50): > 800 µM; CAA ([1]; Example 3, Table 7, no PBS wash): 2.5 ± 0.1 μmol of QE/100 μmol; EC50 ([1]; Example 3, text, no PBS wash, read-out: EC50): 360 ± 17 µM; cellular antioxidant activity, result in words ([1]; PBS wash protocol): very low, unquantifiable, activity; cellular antioxidant activity, result in words ([1]; PBS wash protocol, listed as catechin): low and low activity at the concentrations tested

Further lines, with some results ahead:

EC50 [1, 5] [µM] | EC50 [1, 6] [µM] | EC50 [1, 8] | EC50 [1, 9] | Compound | CAA value ([1]; no PBS wash) [μmol QE/100 μmol] | percent of the antioxidant activity of quercetin in the CAA assay [1] | Cytotoxicity (cytotoxic concentration) [2] [µM] | cellular antioxidant activity, result in words [1, 7] | ORAC [4] | other results
335 ± 26 | 65.4 ± 7.3 |  |  | O=C(O)c1cc(O)c(O)c(O)c1 [Gallic acid] | 9.08±0.95 | less than ten percent | >500 |  |  | EC50 ([1]; Homo sapiens, HepG2, Table 2, no PBS wash, mean ± SD over the trials, read-out: Interexperimental EC50): 64.3 ± 10.7 µM; EC50 ([1]; Homo sapiens, HepG2, Table 2, no PBS wash, one line per trial (trials 1-5), n=3, read-out: Intraexperimental EC50): 65.4 ± 7.3 µM; EC50 ([1]; Homo sapiens, HepG2, Table 3, PBS wash, mean ± SD over the trials, read-out: Interexperimental EC50): 318 ± 36 µM; EC50 ([1]; Homo sapiens, HepG2, Table 3, PBS wash, one line per trial (trials 1-5), n=3, read-out: Intraexperimental EC50): 289 ± 12 µM
 |  | no activity | no activity | O=c1cc(-c2ccccc2)oc2cc(O)cc(O)c12 [chrysin] |  |  |  | no activity |  | CC50 at 24 h [3]: > 200 µM
 |  | no activity | no activity | O=c1c(-c2ccc(O)cc2)coc2cc(O)ccc12 [daidzein] |  |  |  | no cellular antioxidant activity | 8.52 ± 2.11 cde μmol of TE/μmol | CC50 at 24 h ([3]; HepG2 cells): > 100 µM
